Results from ChEMBL document CHEMBL6092216, “Development of α-Helical Antimicrobial Peptides with Imperfect Amphipathicity for Superior Activity and Selectivity” (J Med Chem, 2024).
Active and inactive are the calls of the source. The rule behind the calls is not given here.

Tests used:
Cell membrane [1] = assay: Induction of membrane permeabilization in Acinetobacter baumannii 0357 assessed as increase in fluorescence intensity at 1X to 10XMIC measured for 90 mins by propidium iodide staining based fluorescence analysis; assay type: subcellular
Staphylococcus aureus [2] = assay: Antibacterial activity against methicillin-resistant Staphylococcus aureus 11 assessed as inhibition of bacterial growth incubated for 24 hrs by tube microdilution assay; assay type: functional
Pseudomonas aeruginosa [3] = assay: Ratio of MIC for antibacterial activity against Pseudomonas aeruginosa ATCC 27853 measured following incubation of drug with mouse plasma for 8 hrs to MIC for antibacterial activity against Pseudomonas aeruginosa ATCC 27853; assay type: functional
Staphylococcus aureus [4] = assay: Bactericidal activity against Staphylococcus aureus ATCC 6538 assessed as bacterial cell killing measured after 35 passages; assay type: functional, organism-based
Pseudomonas aeruginosa [5] = assay: Antibiofilm activity against Pseudomonas aeruginosa ATCC 27853 assessed as inhibition of biofilm formation at 1X to 10XMIC incubated for 24 hrs by crystal violet staining based analysis; assay type: functional, organism-based
HEK-293T = assay: Cytotoxicity against HEK293T cells assessed as effect on cell viability at 3.13 to 400 ug/ml incubated for 24 hrs by CCK-8 assay; assay type: toxicity, cell-based; settings: human, dose 3.13-400 µg/ml
Staphylococcus aureus [6] = assay: Antipersister-activity against Staphylococcus aureus ATCC 6538 assessed as elimination of persister cells preincubated adherent persistent cells with vancomycin for 24 hrs followed by incubation with drug for 12 hrs; assay type: functional, organism-based
Staphylococcus aureus [7] = assay: Induction of bacterial cell rupture in Staphylococcus aureus ATCC 6538 assessed as membrane rupture, roughening and blebbing of membrane at 5XMIC measured after 30 mins by scanning electron microscopy; assay type: functional, organism-based
Pseudomonas aeruginosa [8] = assay: Bactericidal activity against Pseudomonas aeruginosa ATCC 27853 assessed as elimination of bacterial cells at 5X to 10XMIC measured within 3 hrs by killing kinetic assay; assay type: functional
Staphylococcus aureus [9] = assay: Antibacterial activity against Staphylococcus aureus ATCC 6538 assessed as inhibition of bacterial growth by tube microdilution assay; assay type: functional
Acinetobacter baumannii [10] = assay: Antibiofilm activity against Acinetobacter baumannii ATCC 19606 assessed as inhibition of biofilm formation at 1X to 10XMIC incubated for 24 hrs by crystal violet staining based analysis; assay type: functional, organism-based
Staphylococcus aureus [11] = assay: Antibiofilm activity against Staphylococcus aureus ATCC 6538 assessed as inhibition of biofilm formation at 1X to 10XMIC incubated for 24 hrs by crystal violet staining based analysis; assay type: functional, organism-based
Staphylococcus aureus [12] = assay: Antibacterial activity against Staphylococcus aureus 157752 assessed as inhibition of bacterial growth incubated for 24 hrs by tube microdilution assay; assay type: functional
Staphylococcus aureus [13] = assay: Ratio of MIC for antibacterial activity against Staphylococcus aureus ATCC 6538 measured following incubation of drug with mouse plasma for 8 hrs to MIC for antibacterial activity against Staphylococcus aureus ATCC 6538; assay type: functional
Staphylococcus aureus [14] = assay: Antibacterial activity against Staphylococcus aureus 11842 assessed as inhibition of bacterial growth incubated for 24 hrs by tube microdilution assay; assay type: functional
Acinetobacter baumannii [15] = assay: Antibacterial activity against Acinetobacter baumannii 19110 assessed as inhibition of bacterial growth incubated for 24 hrs by tube microdilution assay; assay type: functional
Staphylococcus aureus [16] = assay: Antibacterial activity against Staphylococcus aureus 08310 assessed as inhibition of bacterial growth incubated for 24 hrs by tube microdilution assay; assay type: functional
Cell membrane [17] = assay: Induction of membrane permeabilization in Staphylococcus aureus ATCC 6538 assessed as increase in fluorescence intensity at 1X to 10XMIC measured for 90 mins by propidium iodide staining based fluorescence analysis; assay type: subcellular
Pseudomonas aeruginosa [18] = assay: Antibiofilm activity against preformed Pseudomonas aeruginosa ATCC 27853 biofilms assessed as biofilm eradication at 1X to 10XMIC incubated for 24 hrs by crystal violet staining based analysis; assay type: functional, organism-based
Staphylococcus aureus [19] = assay: Antibacterial activity against methicillin-resistant Staphylococcus aureus 12 assessed as inhibition of bacterial growth incubated for 24 hrs by tube microdilution assay; assay type: functional
Staphylococcus aureus [20] = assay: Antibacterial activity against Staphylococcus aureus ATCC 6538 infected in BALB/c mouse assessed as inhibition of bacterial colonization on wounded skin at 0.5 mg/ml applied on skin and measured after 2 hrs relative to control; assay type: functional
Pseudomonas aeruginosa [21] = assay: Antibacterial activity against Pseudomonas aeruginosa 17068 assessed as inhibition of bacterial growth incubated for 24 hrs by tube microdilution assay; assay type: functional
[22] = Toxicity against C57BL/6J mouse assessed as behavioural changes at 10 to 20 mg/kg, iv measured for 48 hrs post-injection; assay type: organism-based; settings: in vivo, dose 10-20 mg/kg
Staphylococcus aureus [23] = assay: Antibacterial activity against Staphylococcus aureus 15192 assessed as inhibition of bacterial growth incubated for 24 hrs by tube microdilution assay; assay type: functional
Staphylococcus aureus [24] = assay: Antibacterial activity against methicillin-resistant Staphylococcus aureus 21 assessed as inhibition of bacterial growth incubated for 24 hrs by tube microdilution assay; assay type: functional
Staphylococcus aureus [25] = assay: Bactericidal activity against Staphylococcus aureus ATCC 6538 assessed as elimination of bacterial cells at 5XMIC measured within 1 hr by killing kinetic assay; assay type: functional
Pseudomonas aeruginosa [26] = assay: Induction of bacterial cell rupture in Pseudomonas aeruginosa ATCC 27853 assessed as induction of internal perturbations and breaks along the membrane at 5XMIC measured after 30 mins transmission electron microscopy; assay type: functional, organism-based
Acinetobacter baumannii [27] = assay: Antipersister-activity against Acinetobacter baumannii ATCC 19606 assessed as elimination of persister cells preincubated adherent persistent cells with colistin for 24 hrs followed by incubation with drug for 12 hrs; assay type: functional, organism-based
Acinetobacter baumannii [28] = assay: Antibacterial activity against Acinetobacter baumannii ATCC 19606 assessed as inhibition of bacterial growth by tube microdilution assay; assay type: functional
Pseudomonas aeruginosa [29] = assay: Antibacterial activity against Pseudomonas aeruginosa 60357 assessed as inhibition of bacterial growth incubated for 24 hrs by tube microdilution assay; assay type: functional
HaCaT = assay: Cytotoxicity against human HaCaT cells assessed as effect on cell viability at 3.13 to 400 ug/ml incubated for 24 hrs by CCK-8 assay; assay type: toxicity, cell-based; settings: dose 3.13-400 µg/ml
Staphylococcus aureus [30] = assay: Antibacterial activity against methicillin-resistant Staphylococcus aureus 41 assessed as inhibition of bacterial growth incubated for 24 hrs by tube microdilution assay; assay type: functional
Staphylococcus aureus [31] = assay: Antibacterial activity against methicillin-resistant Staphylococcus aureus Z assessed as inhibition of bacterial growth incubated for 24 hrs by tube microdilution assay; assay type: functional
Staphylococcus aureus [32] = assay: Antibacterial activity against Staphylococcus aureus 220823 assessed as inhibition of bacterial growth incubated for 24 hrs by tube microdilution assay; assay type: functional
Staphylococcus aureus [33] = assay: Antibacterial activity against methicillin-resistant Staphylococcus aureus 51 assessed as inhibition of bacterial growth incubated for 24 hrs by tube microdilution assay; assay type: functional
Staphylococcus aureus [34] = assay: Bactericidal activity against Staphylococcus aureus ATCC 6538 assessed as elimination of bacterial cells at 5X to 10X MIC measured within 3 hrs by killing kinetic assay; assay type: functional
Erythrocyte = assay: Induction of hemolysis in mouse red blood cells at 1.56 to 100 ug/ml incubated for 1 hr; assay type: toxicity, cell-based; settings: dose 1.56-100 µg/ml
Pseudomonas aeruginosa [35] = assay: Bactericidal activity against Pseudomonas aeruginosa ATCC 27853 assessed as elimination of bacterial cells at 5XMIC measured within 1 hr by killing kinetic assay; assay type: functional
Staphylococcus aureus [36] = assay: Antibacterial activity against methicillin-resistant Staphylococcus aureus 22 assessed as inhibition of bacterial growth incubated for 24 hrs by tube microdilution assay; assay type: functional
Staphylococcus aureus [37] = assay: Antibacterial activity against methicillin-resistant Staphylococcus aureus 42 assessed as inhibition of bacterial growth incubated for 24 hrs by tube microdilution assay; assay type: functional

**Q.** Which results are given for H-RRGIKKFIKKVKKVKKAI-OH?
**A.** Activity (Cell membrane [1]): Dose-dependent-effect; MIC (Staphylococcus aureus [2]): 2.34 µg/mL; Ratio (Pseudomonas aeruginosa [3]): 4; Activity (Staphylococcus aureus [4]): Active; Activity (Pseudomonas aeruginosa [5]): Dose-dependent-effect; Activity (HEK-293T): Non-toxic; Activity (Staphylococcus aureus [6]): Dose-dependent-effect; Activity (Staphylococcus aureus [7]): Active; Roughening And Blebbing Of Membrane Is Less Pronounced Than In Pseudomonas Aeruginosa; Activity (Pseudomonas aeruginosa [8]): 100%; MIC (Staphylococcus aureus [9]): 2.34 µg/mL; Activity (Acinetobacter baumannii [10]): Dose-dependent-effect; Activity (Staphylococcus aureus [11]): Dose-dependent-effect; MIC (Staphylococcus aureus [12]): 2.34 µg/mL; Ratio (Staphylococcus aureus [13]): 4; MIC (Staphylococcus aureus [14]): 2.34 µg/mL; MIC (Acinetobacter baumannii [15]): 2.34 µg/mL; MIC (Staphylococcus aureus [16]): 2.34 µg/mL; Activity (Cell membrane [17]): Dose-dependent-effect; Activity (Pseudomonas aeruginosa [18]): Active; MIC (Staphylococcus aureus [19]): 2.34 µg/mL; inhibition in vivo at 500 µg/mL (Staphylococcus aureus [20]): 71.8%; MIC (Pseudomonas aeruginosa [21]): 1.17 µg/mL; Activity [22]: Non-toxic; MIC (Staphylococcus aureus [23]): 2.34 µg/mL; MIC (Staphylococcus aureus [24]): 2.34 µg/mL; Activity (Staphylococcus aureus [25]): 99.7%; Activity (Pseudomonas aeruginosa [26]): Active; Activity (Acinetobacter baumannii [27]): Dose-dependent-effect; MIC (Acinetobacter baumannii [28]): 2.34 µg/mL; MIC (Pseudomonas aeruginosa [29]): 1.17 µg/mL; Activity (HaCaT): Non-toxic; MIC (Staphylococcus aureus [30]): 2.34 µg/mL; MIC (Staphylococcus aureus [31]): 2.34 µg/mL; MIC (Staphylococcus aureus [32]): 2.34 µg/mL; MIC (Staphylococcus aureus [33]): 2.34 µg/mL; Activity (Staphylococcus aureus [34]): 100%; Activity (Erythrocyte): Non-toxic; Activity (Pseudomonas aeruginosa [35]): 96.6%; MIC (Staphylococcus aureus [36]): 2.34 µg/mL; MIC (Staphylococcus aureus [37]): 2.34 µg/mL
